Reference: patent EP0222155A1, “5-Fluorouracil derivatives” (TERUMO KABUSHIKI KAISHA trading as TERUMO CORPORATION, priority 1985, dated 1987)
Where two headings read alike, the source gives them in different places.

Assays:
[1] = system: P388 cells; assay: Antitumor activity: increase in life survival of mice transplanted i.p. with P388 cells; type: in vivo, CDF₁ mice; details: for ILS (%): intraperitoneally once a day for five days, P388 in CDF₁ mice
Method: CDF₁ mice (male, 5 weeks old) were intraperitoneally transplanted with P388 cells at a dose of 1 x 10⁶ cells/mouse.
From the next day of the transplantation, a test compound of the invention in the form of 0.5% carboxymethylcellulose suspension was intraperitoneally administered once a day for consecutive five days. Percent increase in life survival was determined: [formula]

[2] = system: platelet aggregation; assay: Platelet aggregation-inhibitory activity in platelet-rich plasma; type: cell-based, rabbit; details: Oryctolagus cuniculus
Method: From rabbit carotid […] was drawn blood (9 volumes) by means of a syringe containing 3.8% aqueous sodium citrate (1 volume). The blood was centrifuged to obtain platelet-rich plasma (PRP: 550,000/µl). Platelet aggregation-inhibitory activity of a compound of the invention was measure using as an aggregation-inducing agent arachidonic acid or collagen. 50%-inhibition concentration (IC₅₀) against the platelet aggregation caused by arachidonic acid (80 µM) and collagen (30 µg/ml) is shown in Table 2 for representative compounds according to the invention.

[3] = Acute toxicity test, oral administration; details: mouse, in vivo, ICR male mice (7 weeks old), read-out: LD₅₀
Description: An acute toxicity test was run with ICR male mice (7 weeks old) by an oral administration.

[4] = aggregation caused by arachidonic acid (80 µM), rabbit PRP, read-out: 50%-Inhibition concentration, Arachidonic acid
[5] = aggregation caused by collagen (30 µg/ml), rabbit PRP, read-out: 50%-Inhibition concentration, Collagen

IC50 [2, 4] [µM] | IC50 [2, 5] [µM] | SMILES | ILS (%) ([1]; Dose 10 mg/kg/day) | ILS (%) ([1]; Dose 30 mg/kg/day) | ILS (%) ([1]; Dose 100 mg/kg/day) | ILS (%) ([1]; Dose 40 mg/kg/day) | survival days compared with control mice (in words) ([1]; Dose 100 mg/kg/day as stated in the text) | IC50 ([2]; read-out: 50%-Inhibition concentration, Arachidonic acid) [µM] | IC50 ([2]; read-out: 50%-Inhibition concentration, Collagen) [µM] | LD50 [3] [mg/kg]
65 | 340 | CC/C=C\C/C=C\C/C=C\CCCCCCCC(=O)OC(C)n1cc(F)c(=O)[nH]c1=O (stereo not drawn) [Example 1, 1-(α-9,12,15-octadecatrienoyloxy-α-methyl)-methyl-5-fluorouracil] | 24.6 | 46.8 | 80.5 |  |  |  |  | 
57 | 530 | CC/C=C\C/C=C\C/C=C\CCCCCCCC(=O)OC(CC)n1cc(F)c(=O)[nH]c1=O (stereo not drawn) [Example 2, 1-(α-9,12,15-octadecatrienoyloxy-α-ethyl)methyl-5-fluorouracil] | 27.2 | 39.7 | 73.8 |  |  |  |  | 
 |  | O=c1[nH]cc(F)c(=O)[nH]1 [Example 5-FU, 5-Fluorouracil] | 65.2 | 27.4 |  | -24.8 | survival days shorter than those for control mice | > 1000 | > 1000 | 309
32 | 140 | CC/C=C\C/C=C\C/C=C\C/C=C\C/C=C\CCCC(=O)OC(C)n1cc(F)c(=O)[nH]c1=O (stereo not drawn) [Example 3, 1-(α-5,8,11,14,17-eicosapentaenoyloxy-α-methyl)methyl-5-fluorouracil] | 26.8 | 49.2 | 82.1 |  |  |  |  | 
